US20260306640A1, “TECHNOLOGIES TARGETING CELL STATES” (Auron Therapeutics, Inc., priority 2023, published 2026)

Legend:
[1] = target: KAT2A (Homo sapiens, UniProt Q92830); experiment: KAT2A degradation, Western Blot (Jess), NCI-H1048 cells; type: cell-based; set-up: degrader, Western blot (Jess); details: NCI-H1048 cells, KAT2A, 24 h, Western Blot, vs DMSO; read-out: KAT2A NCI-H1048 DC50
Procedure, shortened: (§1)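 DC50 came from protein loss relative to DMSO, measured by Jess capillary immunoblot of RIPA lysates with chemiluminescence read-out. Before lysis, NCI-H1048 cells in 5% FBS HITES medium were exposed to compound for 24 h at 37° C.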

[2] = target: KAT2B (Homo sapiens, UniProt Q92831); experiment: KAT2B degradation, Western Blot (Jess), NCI-H1048 cells; type: cell-based; set-up: degrader, Western blot (Jess); details: NCI-H1048 cells, KAT2B, 24 h, Western Blot, vs DMSO; read-out: KAT2B NCI-H1048 DC50
Chain of KAT2B (Q92831 whole entry): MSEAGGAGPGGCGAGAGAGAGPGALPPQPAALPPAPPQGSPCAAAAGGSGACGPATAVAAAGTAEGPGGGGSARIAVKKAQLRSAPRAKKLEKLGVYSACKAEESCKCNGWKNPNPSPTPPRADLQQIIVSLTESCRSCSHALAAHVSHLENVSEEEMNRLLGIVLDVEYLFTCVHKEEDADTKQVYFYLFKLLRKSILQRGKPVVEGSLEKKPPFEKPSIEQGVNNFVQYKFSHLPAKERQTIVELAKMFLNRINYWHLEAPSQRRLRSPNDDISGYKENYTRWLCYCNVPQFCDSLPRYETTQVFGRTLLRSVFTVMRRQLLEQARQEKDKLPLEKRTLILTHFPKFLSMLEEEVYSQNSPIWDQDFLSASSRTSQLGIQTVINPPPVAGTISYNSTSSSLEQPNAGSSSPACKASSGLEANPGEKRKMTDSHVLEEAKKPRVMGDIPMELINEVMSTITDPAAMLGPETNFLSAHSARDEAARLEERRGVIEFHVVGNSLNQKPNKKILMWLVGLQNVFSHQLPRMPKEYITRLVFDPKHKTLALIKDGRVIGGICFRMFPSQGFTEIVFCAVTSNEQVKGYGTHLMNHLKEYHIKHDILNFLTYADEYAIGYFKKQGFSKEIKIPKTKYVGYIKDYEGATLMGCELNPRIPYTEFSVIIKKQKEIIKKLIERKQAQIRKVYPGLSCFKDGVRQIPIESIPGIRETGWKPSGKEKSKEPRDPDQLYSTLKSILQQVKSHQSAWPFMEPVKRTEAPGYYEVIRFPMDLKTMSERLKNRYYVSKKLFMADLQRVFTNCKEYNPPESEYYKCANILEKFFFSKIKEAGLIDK
Procedure, shortened: as §1

Chain of KAT2A (Q92830 whole entry): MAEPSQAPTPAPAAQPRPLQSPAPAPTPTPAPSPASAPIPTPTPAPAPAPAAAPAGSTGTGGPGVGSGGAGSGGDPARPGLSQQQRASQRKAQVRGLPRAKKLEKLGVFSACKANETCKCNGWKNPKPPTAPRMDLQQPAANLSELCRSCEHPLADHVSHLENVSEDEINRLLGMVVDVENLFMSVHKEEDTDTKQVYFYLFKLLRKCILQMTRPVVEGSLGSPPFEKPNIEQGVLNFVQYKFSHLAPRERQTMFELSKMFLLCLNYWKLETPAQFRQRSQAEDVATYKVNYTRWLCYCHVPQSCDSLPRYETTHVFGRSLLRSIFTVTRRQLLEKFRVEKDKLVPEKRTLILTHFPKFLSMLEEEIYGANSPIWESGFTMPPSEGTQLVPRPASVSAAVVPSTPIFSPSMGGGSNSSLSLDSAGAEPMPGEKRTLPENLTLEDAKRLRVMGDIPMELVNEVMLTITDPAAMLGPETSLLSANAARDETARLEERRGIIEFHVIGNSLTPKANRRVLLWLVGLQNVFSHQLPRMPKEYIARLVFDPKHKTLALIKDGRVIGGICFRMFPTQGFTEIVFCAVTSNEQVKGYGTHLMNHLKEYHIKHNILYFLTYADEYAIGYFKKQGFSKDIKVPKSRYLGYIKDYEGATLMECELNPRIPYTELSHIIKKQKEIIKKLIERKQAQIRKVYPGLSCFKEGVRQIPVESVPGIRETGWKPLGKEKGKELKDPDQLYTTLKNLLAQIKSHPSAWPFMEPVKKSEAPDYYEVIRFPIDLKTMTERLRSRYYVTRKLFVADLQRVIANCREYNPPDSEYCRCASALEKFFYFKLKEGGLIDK

DC50 [1] [nM] | DC50 [2] [nM] | SMILES
> 30 | > 30 | Cc1ncsc1-c1ccc(CNC(=O)[C@@H]2C[C@@H](O)CN2C(=O)[C@@H](NC(=O)CCCCNC(=O)c2ccc([C@H]3C[C@@H](Nc4cnn(C)c(=O)c4Br)CN(C)C3)cc2)C(C)(C)C)cc1 [Compound 422]
> 30 | > 30 | Cc1ncsc1-c1ccc(CNC(=O)[C@@H]2C[C@@H](O)CN2C(=O)[C@@H](NC(=O)COCCOCCNC(=O)c2ccc(C3CC(Nc4cnn(C)c(=O)c4Br)CN(C)C3)cc2)C(C)(C)C)cc1 (stereo partly shown) [Compound 423]
> 30 | > 30 | Cn1ncc(N[C@@H]2C[C@H](c3ccc(C(=O)N4CCC5(CC4)CCN(c4ccc(C6CCC(=O)NC6=O)cc4)CC5)cc3)CN(C3CC3)C2)c(Br)c1=O (stereo partly drawn) [Compound 424, 3-(4-(9-(4-((3R,5R)-5-((5-bromo-1-methyl-6-oxo-1,6-dihydropyridazin-4-yl)amino)-1-cyclopropylpiperidin-3-yl)benzoyl)-3,9-diazaspiro[5.5]undecan-3-yl)phenyl)piperidine-2,6-dione]
< 1 | < 1 | Cn1ncc(N[C@@H]2C[C@H](c3ccc(C(=O)N4CCC5(CC4)CCN(c4ccc(C6CCC(=O)NC6=O)cc4)CC5)cc3)CN(CC3CC3)C2)c(Br)c1=O (stereo partly drawn) [Compound 425, 3-[4-[3-[4-[(3R,5R)-5-[(5-bromo-1-methyl-6-oxo-pyridazin-4-yl)amino]-1-(cyclopropylmethyl)-3-piperidyl]benzoyl]-3,9-diazaspiro[5.5]undecan-9-yl]phenyl]piperidine-2,6-dione]
< 1 | < 1 | CN1C[C@H](Nc2nc3cc[nH]c3c(=O)n2C)C[C@H](c2ccc(C(=O)N3CCC4(CC3)CCN(c3ccc(C5CCC(=O)NC5=O)cc3)CC4)cc2)C1 (stereo partly drawn) [Compound 427, 3-(4-(9-(4-((3R,5R)-1-methyl-5-((3-methyl-4-oxo-4,5-dihydro-3H-pyrrolo[3,2-d]pyrimidin-2-yl)amino)piperidin-3-yl)benzoyl)-3,9-diazaspiro[5.5]undecan-3-yl)phenyl)piperidine-2,6-dione]
< 1 | 1 to 30 | C[C@H](Nc1nn(C)c(=O)c2cccnc12)[C@H](c1ccc(C(=O)N2CCC3(CC2)CCN(c2ccc(C4CCC(=O)NC4=O)cc2)CC3)cc1)N(C)C (stereo partly drawn) [Compound 429, 3-(4-(9-(4-((1S,2S)-1-(dimethylamino)-2-((6-methyl-5-oxo-5,6-dihydropyrido[2,3-d]pyridazin-8-yl)amino)propyl)benzoyl)-3,9-diazaspiro[5.5]undecan-3-yl)phenyl)piperidine-2,6-dione]
< 1 | > 30 | C[C@H](Nc1nn(C)c(=O)c2ncccc12)[C@H](c1ccc(C(=O)N2CCC3(CC2)CCN(c2ccc(C4CCC(=O)NC4=O)cc2)CC3)cc1)N(C)C (stereo partly drawn) [Compound 430, 3-(4-(9-(4-((1S,2S)-1-(dimethylamino)-2-((7-methyl-8-oxo-7,8-dihydropyrido[2,3-d]pyridazin-5-yl)amino)propyl)benzoyl)-3,9-diazaspiro[5.5]undecan-3-yl)phenyl)-piperidine-2,6-dione]
< 1 | > 30 | C[C@H](Nc1nn(C)c(=O)c2ccccc12)[C@H](c1ccc(C(=O)N2CCC3(CC2)CCN(c2ccc(C4CCC(=O)NC4=O)cc2)CC3)cc1)N(C)C (stereo partly drawn) [Compound 432, 3-(4-(9-(4-((1S,2S)-1-(dimethylamino)-2-((3-methyl-4-oxo-3,4-dihydro-phthalazin-1-yl)amino)propyl)benzoyl)-3,9-diazaspiro[5.5]undecan-3-yl)phenyl)piperid-ine-2,6-dione]
< 1 | 1 to 30 | CN1C[C@H](Nc2cnn(C)c(=O)c2Br)C[C@H](c2ccc(COc3ccc4c(=O)n(C5CCC(=O)NC5=O)ccc4c3)cc2)C1 (stereo partly drawn) [Compound 433, 3-(6-((4-((3R,5R)-5-((5-bromo-1-methyl-6-oxo-1,6-dihydropyridazin-4-yl)amino)-1-methylpiperidin-3-yl)benzyl)oxy)-1-oxoisoquinolin-2(1H)-yl)piperidine-2,6-dione]
< 1 | < 1 | CN1C[C@H](Nc2cnn(C)c(=O)c2Br)C[C@H](c2ccc(N3CCC(Oc4cccc(C5CCC(=O)NC5=O)c4)CC3)cc2)C1 (stereo partly drawn) [Compound 434, 3-(3-((1-(4-((3R,5R)-5-((5-bromo-1-methyl-6-oxo-1,6-dihydropyridazin-4-yl)amino)-1-methylpiperidin-3-yl)phenyl)piperidin-4-yl)oxy)phenyl)piperidine-2,6-dione]

Continued, compound first:

SMILES | DC50 [1] [nM] | DC50 [2] [nM]
CN1C[C@H](Nc2cnn(C)c(=O)c2Br)C[C@H](c2ccc(CN3CCN(c4ccc5nc(C6CCC(=O)NC6=O)ccc5c4)CC3)cc2)C1 (stereo partly shown) [Compound 385] | 1 to 30 | 1 to 30
CN1C[C@H](Nc2cnn(C)c(=O)c2Br)C[C@H](c2ccc(CN3CCC(c4cccc(C5CCC(=O)NC5=O)c4)C(F)(F)C3)cc2)C1 (stereo partly shown) [Compound 386] | 1 to 30 | > 30
Cc1c(N[C@@H]2C[C@H](c3ccc(CN4CCC(c5cccc(C6CCC(=O)NC6=O)c5)C(F)(F)C4)cc3)CN(C)C2)cnn(C)c1=O (stereo partly shown) [Compound 387] | < 1 | > 30
CN1C[C@H](Nc2cnn(C)c(=O)c2Br)C[C@H](c2ccc(CN3CCC(c4ccc5c(C6CCC(=O)NC6=O)cncc5c4)C(F)(F)C3)cc2)C1 (stereo partly shown) [Compound 388] | < 1 | < 1
CN1C[C@H](Nc2cnn(C)c(=O)c2Cl)C[C@H](c2ccc(CN3CCC(c4ccc5c(C6CCC(=O)NC6=O)cncc5c4)C(F)(F)C3)cc2)C1 (stereo partly shown) [Compound 389] | < 1 | < 1
CN1C[C@H](Nc2cnn(C)c(=O)c2Cl)C[C@H](c2ccc(CN3CCC(c4cccc(C5CCC(=O)NC5=O)c4)C(F)(F)C3)cc2)C1 (stereo partly shown) [Compound 390] | 1 to 30 | > 30
CN1C[C@H](Nc2cnn(C)c(=O)c2Br)C[C@H](c2ccc(CN3CCC(c4ccc5c(c4)C(=O)N(C4CCC(=O)NC4=O)C5=O)C(F)(F)C3)cc2)C1 (stereo partly shown) [Compound 391] | > 30 | < 1
Cc1cc(N2CCC3(CCN(C(=O)c4ccc([C@H]5C[C@@H](Nc6cnn(C)c(=O)c6Br)CN(C)C5)cc4)CC3)CC2)ccc1N1CCC(=O)NC1=O [Compound 395] | < 1 | < 1
Cc1cc(N2CCC3(CCN(C(=O)c4ccc([C@H]5C[C@@H](Nc6cnn(C)c(=O)c6Cl)CN(C)C5)cc4)CC3)CC2)ccc1N1CCC(=O)NC1=O [Compound 396] | < 1 | < 1
CN1C[C@H](Nc2cnn(C)c(=O)c2Br)C[C@H](c2ccc(C(=O)N3CCC4(CC3)CCN(c3ccc(N5CCC(=O)NC5=O)c(F)c3)CC4)cc2)C1 [Compound 397] | < 1 | < 1
CN1C[C@H](Nc2cnn(C)c(=O)c2Cl)C[C@H](c2ccc(C(=O)N3CCC4(CC3)CCN(c3ccc(N5CCC(=O)NC5=O)c(F)c3)CC4)cc2)C1 [Compound 398] | < 1 | < 1
Cc1cc(N2CCC3(CCN(C(=O)c4ccc([C@H]5C[C@@H](Nc6cnn(C)c(=O)c6Cl)CN(C)C5)cc4)CC3)CC2)cc(C)c1N1CCC(=O)NC1=O [Compound 399] | > 30 | > 30
CN1C[C@H](Nc2cnn(C)c(=O)c2Cl)C[C@H](c2ccc(N3CCC4(CC3)CCN(c3cccc(CN5CCC(=O)NC5=O)c3)CC4)cc2)C1 [Compound 401] | < 1 | > 30
CN1C[C@H](Nc2cnn(C)c(=O)c2Br)C[C@H](c2ccc(C(=O)N3CCC4(CC3)CCN(c3ccc(C(=O)NC5CCC(=O)NC5=O)nc3)CC4)cc2)C1 (stereo partly shown) [Compound 402] | < 1 | < 1
CN1C[C@H](Nc2cnn(C)c(=O)c2Cl)C[C@H](c2ccc(C(=O)N3CCC4(CC3)CCN(c3ccc(C(=O)NC5CCC(=O)NC5=O)nc3)CC4)cc2)C1 (stereo partly shown) [Compound 403] | < 1 | 1 to 30
CN1C[C@H](Nc2cnn(C)c(=O)c2Br)C[C@H](c2ccc(C(=O)N3CCC4(CC3)CCN(c3cnc(C(=O)NC5CCC(=O)NC5=O)c(F)c3)CC4)cc2)C1 (stereo partly shown) [Compound 404] | < 1 | 1 to 30
CN1C[C@H](Nc2cnn(C)c(=O)c2Cl)C[C@H](c2ccc(C(=O)N3CCC4(CC3)CCN(c3ccc(C(=O)NC5CCC(=O)NC5=O)c(F)c3)CC4)cc2)C1 (stereo partly shown) [Compound 405] | < 1 | 1 to 30
Cc1ncsc1-c1ccc(CNC(=O)[C@@H]2C[C@@H](O)CN2C(=O)[C@@H](NC(=O)CN2CCN(C3CCN(C(=O)c4ccc([C@H]5C[C@@H](Nc6cnn(C)c(=O)c6Br)CN(C)C5)cc4)CC3)CC2)C(C)(C)C)cc1 [Compound 408] | > 30 | > 30
Cc1ncsc1-c1ccc(CNC(=O)[C@@H]2C[C@@H](O)CN2C(=O)[C@@H](NC(=O)CN2CCC(N3CCN(C(=O)c4ccc([C@H]5C[C@@H](Nc6cnn(C)c(=O)c6Br)CN(C)C5)cc4)CC3)CC2)C(C)(C)C)cc1 [Compound 409] | 1 to 30 | > 30
Cc1ncsc1-c1ccc(CNC(=O)[C@@H]2C[C@@H](O)CN2C(=O)[C@@H](NC(=O)CC2CCN(C(=O)c3ccc([C@H]4C[C@@H](Nc5cnn(C)c(=O)c5Br)CN(C)C4)cc3)CC2)C(C)(C)C)cc1 [Compound 411] | > 30 | > 30
Cc1ncsc1-c1ccc(CNC(=O)[C@@H]2C[C@@H](O)CN2C(=O)[C@@H](NC(=O)CCCCCCCCNC(=O)c2ccc([C@H]3C[C@@H](Nc4cnn(C)c(=O)c4Br)CN(C)C3)cc2)C(C)(C)C)cc1 [Compound 420] | > 30 | > 30
Cc1ncsc1-c1ccc(CNC(=O)[C@@H]2C[C@@H](O)CN2C(=O)[C@@H](NC(=O)CCCCCNC(=O)c2ccc([C@H]3C[C@@H](Nc4cnn(C)c(=O)c4Br)CN(C)C3)cc2)C(C)(C)C)cc1 [Compound 421] | > 30 | > 30
